Assay results reported in patent publication US7709471B2, “Compounds” (AstraZeneca AB, priority 2006, dated 2010).

How the values were obtained:
[1] = test system: human colon tumour cell line HT29; test: Cellular Assay (phosphohistone H3 Ser10 mitotic marker, HT29); assay type: cell-based; conditions: HT-29, 24 h, HT29 cells, read-out: IC50 (cellular assay, phosphohistone H3)
Protocol: Chromosome condensation in mitosis is accompanied by phosphorylation of histone H3 on serine 10.
After 24 hours, cells were fixed in 3.7% (v/v) formaldehyde then permeabilised and blocked for 10 minutes in 100 μl 0.5% (v/v) Triton X-100, 1% (w/v) bovine serum albumin (BSA) in phosphate buffered saline (PBS). […] The raw assay data were analysed by non-linear regression analysis and used to determine an IC50 value for each compound.

recombinant Plk1 = recombinant Plk1 (Homo sapiens, UniProt P53350); test: In Vitro Plk1 Enzyme Assay (SPA, GST-Cdc25C phosphorylation); assay type: biochemical; conditions: ATP 64 nM, 90 minutes, read-out: IC50 (Plk1 enzyme inhibition)
Sequence of recombinant Plk1 (P53350 whole entry): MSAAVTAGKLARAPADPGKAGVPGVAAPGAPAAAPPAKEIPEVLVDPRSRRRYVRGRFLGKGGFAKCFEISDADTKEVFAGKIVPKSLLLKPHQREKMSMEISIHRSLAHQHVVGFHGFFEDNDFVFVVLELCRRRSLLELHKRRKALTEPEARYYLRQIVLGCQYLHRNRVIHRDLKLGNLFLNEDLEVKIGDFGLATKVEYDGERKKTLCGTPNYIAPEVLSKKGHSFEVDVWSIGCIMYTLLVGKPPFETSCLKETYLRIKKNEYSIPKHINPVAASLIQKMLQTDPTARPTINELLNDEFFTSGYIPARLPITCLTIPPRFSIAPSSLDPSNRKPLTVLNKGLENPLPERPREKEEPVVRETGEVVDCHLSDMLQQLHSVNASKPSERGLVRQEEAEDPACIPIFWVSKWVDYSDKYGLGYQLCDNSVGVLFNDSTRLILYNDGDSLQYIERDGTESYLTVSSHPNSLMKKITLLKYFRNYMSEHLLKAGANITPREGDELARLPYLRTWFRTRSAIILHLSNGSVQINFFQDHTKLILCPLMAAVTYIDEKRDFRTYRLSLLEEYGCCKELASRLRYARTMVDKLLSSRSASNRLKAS

## COc1cc(C(=O)N[C@H]2[C@@H]3CN(C)C[C@@H]32)ccc1Nc1ncc2c(n1)N(C1CCCC1)CCC(=O)N2C [Example 64, 4-[(6-cyclopentyl-2-methyl-3-oxo-2,6,8,10-tetrazabicyclo[5.4.0]undeca-8,10,12-trien-9-yl)amino]-3-methoxy-N-[(1S,5R)-3-methyl-3-azabicyclo[3.1.0]hex-6-yl]benzamide]
[1]
  IC50: < 0.3 µM
Recombinant Plk1
  IC50: < 0.3 µM

## COc1cc(C(=O)Nc2ccncc2)ccc1Nc1ncc2c(n1)N(C1CCCC1)CCC(=O)N2C [Example 67, 4-[(6-cyclopentyl-2-methyl-3-oxo-2,6,8,10-tetrazabicyclo[5.4.0]undeca-8,10,12-trien-9-yl)amino]-3-methoxy-N-pyridin-4-yl-benzamide]
[1]
  IC50: < 0.3 µM
Recombinant Plk1
  IC50: < 1 µM

## COc1cc(C(=O)NCCCN2CCCCC2)ccc1Nc1ncc2c(n1)N(C1CCCC1)CCC(=O)N2C [Example 69, 4-[(6-cyclopentyl-2-methyl-3-oxo-2,6,8,10-tetrazabicyclo[5.4.0]undeca-8,10,12-trien-9-yl)amino]-3-methoxy-N-[3-(1-piperidyl)propyl]benzamide]
[1]
  IC50: < 0.3 µM
Recombinant Plk1
  IC50: < 0.3 µM

## COc1cc(C(=O)NCCCN2CCCCCC2)ccc1Nc1ncc2c(n1)N(C1CCCC1)CCC(=O)N2C [Example 70, N-[3-(azepan-1-yl)propyl]-4-[(6-cyclopentyl-2-methyl-3-oxo-2,6,8,10-tetrazabicyclo[5.4.0]undeca-8,10,12-trien-9-yl)amino]-3-methoxy-benzamide]
[1]
  IC50: < 0.3 µM
Recombinant Plk1
  IC50: < 1 µM

## COc1cc(C(=O)NC2CC3CCC(C2)N3C)ccc1Nc1ncc2c(n1)N(C1CCCC1)CCC(=O)N2C [Example 71, 4-[(6-cyclopentyl-2-methyl-3-oxo-2,6,8,10-tetrazabicyclo[5.4.0]undeca-8,10,12-trien-9-yl)amino]-3-methoxy-N-[(1S,5R)-8-methyl-8-azabicyclo[3.2.1]oct-3-yl]benzamide]
[1]
  IC50: < 0.3 µM
Recombinant Plk1
  IC50: < 0.3 µM

## COc1cc(C(=O)NC2CC(C)(C)N(C)C(C)(C)C2)ccc1Nc1ncc2c(n1)N(C1CCCC1)CCC(=O)N2C [Example 72, 4-[(6-cyclopentyl-2-methyl-3-oxo-2,6,8,10-tetrazabicyclo[5.4.0]undeca-8,10,12-trien-9-yl)amino]-3-methoxy-N-(1,2,2,6,6-pentamethyl-4-piperidyl)benzamide]
[1]
  IC50: < 0.3 µM
Recombinant Plk1
  IC50: < 0.3 µM

## COc1cc(C(=O)NC(C)CN2CCCCC2)ccc1Nc1ncc2c(n1)N(C1CCCC1)CCC(=O)N2C (centres unmarked) [Example 73, 4-[(6-cyclopentyl-2-methyl-3-oxo-2,6,8,10-tetrazabicyclo[5.4.0]undeca-8,10,12-trien-9-yl)amino]-3-methoxy-N-[1-(1-piperidyl)propan-2-yl]benzamide]
[1]
  IC50: < 0.3 µM
Recombinant Plk1
  IC50: < 0.3 µM

## COc1cc(C(=O)Nc2cccnc2)ccc1Nc1ncc2c(n1)N(C1CCCC1)CCC(=O)N2C [Example 74, 4-[(6-cyclopentyl-2-methyl-3-oxo-2,6,8,10-tetrazabicyclo[5.4.0]undeca-8,10,12-trien-9-yl)amino]-3-methoxy-N-pyridin-3-yl-benzamide]
[1]
  IC50: < 0.3 µM
Recombinant Plk1
  IC50: < 100 µM

## COc1cc(C(=O)NCC(C)(C)N2CCCCC2)ccc1Nc1ncc2c(n1)N(C1CCCC1)CCC(=O)N2C [Example 75, 4-[(6-cyclopentyl-2-methyl-3-oxo-2,6,8,10-tetrazabicyclo[5.4.0]undeca-8,10,12-trien-9-yl)amino]-3-methoxy-N-[2-methyl-2-(1-piperidyl)propyl]benzamide]
[1]
  IC50: < 0.3 µM
Recombinant Plk1
  IC50: < 0.3 µM

## COc1cc(C(=O)NCc2cccnc2)ccc1Nc1ncc2c(n1)N(C1CCCC1)CCC(=O)N2C [Example 76, 4-[(6-cyclopentyl-2-methyl-3-oxo-2,6,8,10-tetrazabicyclo[5.4.0]undeca-8,10,12-trien-9-yl)amino]-3-methoxy-N-(pyridin-3-ylmethyl)benzamide]
[1]
  IC50: < 0.3 µM
Recombinant Plk1
  IC50: < 1 µM
